Measurements taken from patent US9957271B2, “Substituted bicyclic aza-heterocycles and analogues as sirtuin modulators” (GlaxoSmithKline, LLC, priority 2012, dated 2018).
Read-outs that look alike come from different tables or passages of the source.

Biological target: T1, SIRT1 (Homo sapiens, UniProt Q96EB6)
T1 sequence (Q96EB6 1-747): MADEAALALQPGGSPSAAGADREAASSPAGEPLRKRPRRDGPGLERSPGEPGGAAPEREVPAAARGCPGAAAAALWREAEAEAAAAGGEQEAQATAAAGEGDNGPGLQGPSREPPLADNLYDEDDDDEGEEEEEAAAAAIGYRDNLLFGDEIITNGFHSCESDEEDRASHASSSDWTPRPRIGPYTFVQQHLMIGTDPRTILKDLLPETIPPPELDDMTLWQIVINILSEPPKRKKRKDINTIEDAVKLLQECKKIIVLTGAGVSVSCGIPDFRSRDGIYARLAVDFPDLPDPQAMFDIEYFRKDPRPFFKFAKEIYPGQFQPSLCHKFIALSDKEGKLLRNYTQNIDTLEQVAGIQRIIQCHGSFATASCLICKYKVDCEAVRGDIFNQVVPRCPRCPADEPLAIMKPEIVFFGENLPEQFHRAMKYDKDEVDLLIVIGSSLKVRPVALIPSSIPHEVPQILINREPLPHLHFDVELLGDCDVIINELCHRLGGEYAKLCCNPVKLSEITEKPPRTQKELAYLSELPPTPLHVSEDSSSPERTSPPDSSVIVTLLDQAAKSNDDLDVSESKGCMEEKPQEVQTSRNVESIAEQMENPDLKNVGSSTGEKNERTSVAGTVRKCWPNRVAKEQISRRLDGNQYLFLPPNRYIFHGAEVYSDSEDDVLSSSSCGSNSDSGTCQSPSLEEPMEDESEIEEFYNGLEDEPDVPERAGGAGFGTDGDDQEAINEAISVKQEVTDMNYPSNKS
Experiment: TAMRA based mass spectrometry assay of SIRT1 activity
Assay type: biochemical
Settings: for Emax: read-out: TAMRA % Fold Act
Source text: Mass spectrometry based assays were used to identify modulators of SIRT1 activity. The TAMRA based assay utilized a peptide having 20 amino acid residues as follows: Ac-EE-K(biotin)-[…](Ac)NleSTEG-K(5TMR)-EE-NH2 (SEQ ID NO: 1), wherein K(Ac) is an acetylated lysine residue and Nle is a norleucine. The peptide was labeled with the fluorophore 5TMR (excitation 540 nm/emission 580 nm) at the C-terminus. The sequence of the peptide substrate was based on p53 with several modifications. In addition, the methionine residue naturally present in the sequence was replaced with the norleucine because the methionine may be susceptible to oxidation during synthesis and purification. The Trp based assay utilized a peptide having an amino acid residues as follows: Ac-R-H-K-K(Ac)-W-NH2 (SEQ ID NO: 2).
The TAMRA based mass spectrometry assay was conducted as follows: 0.5 μM peptide substrate and 120 μM βNAD^+ was incubated with 10 nM SIRT1 for 25 minutes at 25° C. in a reaction buffer (50 mM Tris-acetate pH 8, 137 mM NaCl, 2.7 mM KCl, 1 mM MgCl2, 5 mM DTT, 0.05% BSA). The SIRT1 protein was obtained by cloning the SirT1 gene into a T7-promoter containing vector, which was then transformed and expressed in BL21(DE3) bacterial cells. Test compound was added at varying concentrations to this reaction mixture and the resulting reactions were monitored. After the 25 minute incubation with SIRT1, 10 μL of 10% formic acid was added to stop the reaction. The resulting reactions were sealed and frozen for later mass spec analysis. Determination of the amount of deacetylated substrate peptide formed (or, alternatively, the amount of O-acetyl-ADP-ribose (OAADPR) generated) by the sirtuin-mediated NAD-dependent deacetylation reaction allowed for the precise measurement of relative SIRT1 activity in the presence of varying concentrations of the test compound versus control reactions lacking the test compound.
A control for inhibition of sirtuin activity was conducted by adding 1 μL of 500 mM nicotinamide as a negative control at the start of the reaction (e.g., permits determination of maximum sirtuin inhibition). A control for activation of sirtuin activity was conducted using 10 nM of sirtuin protein, with 1 μL of DMSO in place of compound, to determine the amount of deacetylation of the substrate at a given time point within the linear range of the assay. This time point was the same as that used for test compounds and, within the linear range, the endpoint represents a change in velocity.
For the above assay, SIRT1 protein was expressed and purified as follows. The SirT1 gene was cloned into a T7-promoter containing vector and transformed into BL21(DE3). The protein was expressed by induction with 1 mM IPTG as an N-terminal His-tag fusion protein at 18° C. overnight and harvested at 30,000×g. Cells were lysed with lysozyme in lysis buffer (50 mM Tris-HCl, 2 mM Tris[2-carboxyethyl]phosphine (TCEP), 10 μM ZnCl2, 200 mM NaCl) and further treated with sonication for […] for complete lysis. The protein was purified over a Ni-NTA column (Amersham) and fractions containing pure protein were pooled, concentrated and run over a sizing column (Sephadex S200 26/60 global). The peak containing soluble protein was collected and run on an Ion-exchange column (MonoQ). Gradient elution (200 mM-500 mM NaCl) yielded pure protein. This protein was concentrated and dialyzed against dialysis buffer (20 mM Tris-HCl, 2 mM TCEP) overnight. The protein was aliquoted and frozen at −80° C. until further use.

[1] = concentration of test compound giving 150% activation of SIRT1, TAMRA peptide substrate
[2] = percent maximum fold activation of SIRT1, TAMRA peptide substrate
[3] = TAMRA assay, concentration giving 150% activation of SIRT1
[4] = TAMRA assay, percent maximum fold activation
[5] = TAMRA peptide substrate, concentration giving 150% activation of SIRT1
[6] = TAMRA peptide substrate, percent maximum fold activation

Row | Compound | TAMRA EC1.5 (μM) [1] | Emax [2] [%] | TAMRA EC1.5 (μM) [3] | Emax [4] [%] | further results
1 | O=C(Nc1cnc2ccc(-c3ccccc3C(F)(F)F)nn12)c1ccncc1 [Compound 87] | C (EC1.5>25 μM) | < 350 |  |  | 
2 | O=C(Nc1nc(CN2CCOCC2)cs1)c1cnc2ccc(-c3cccc(Cl)c3)nn12 [Compound 27] | A (EC1.5<1 μM) | ≥ 350 |  |  | 
3 | Cc1cnc(NC(=O)c2c(C)nn3ccc(-c4ccccc4C(F)(F)F)nc23)s1 [Compound 652] |  |  | A (EC1.5<1 μM) | ≥ 350 | 
4 | O=C(Nc1ccccn1)c1cnc2ccc(-c3cccc(N4CCOCC4)c3)nn12 [Compound 10] | B (EC1.5 1-25 μM) | < 350 |  |  | 
5 | Cc1nc2c(C)cc(-c3ccccc3OC(F)(F)F)nn2c1C(=O)Nc1ccncc1F [Compound 494] |  |  |  |  | TAMRA EC1.5 [5]: A (EC1.5<1 μM); Emax [6]: ≥ 350%
6 | O=C(Nc1cccc(N2CCCC2)n1)c1cnc2ccc(-c3ccccc3C(F)F)nn12 [Compound 37] | A (EC1.5<1 μM) | ≥ 350 |  |  | 
7 | O=C(Nc1cnc2ccc(N3CC[C@H](F)C3)nn12)c1ccccn1 [Compound 564] |  |  |  |  | TAMRA EC1.5 [5]: B (EC1.5 1-25 μM); Emax [6]: < 350%
8 | Cc1cc(C)nc(NC(=O)c2cnc3ccc(N4CCC(F)(F)C4)nn23)c1 [Compound 492] |  |  |  |  | TAMRA EC1.5 [5]: B (EC1.5 1-25 μM); Emax [6]: < 350%
9 | Cc1cnc(NC(=O)c2cnc3ccc(-c4ccccc4OC(F)(F)F)nn23)s1 [Compound 397] |  |  |  |  | TAMRA EC1.5 [5]: A (EC1.5<1 μM); Emax [6]: < 350%
10 | Cc1nc(C(=O)Nc2cnc3ccc(-c4ccccc4C(F)(F)F)nn23)c(C)s1 [Compound 220] |  |  | A (EC1.5<1 μM) | ≥ 350 | 
11 | Cc1cccc(NC(=O)c2cnc3ccc(-c4ccccc4OC[C@H](O)CO)nn23)n1 [Compound 804] |  |  | A (EC1.5<1 μM) | ≥ 350 | 
12 | Cc1cc(C)nc(NC(=O)c2cnc3ccc(-c4ccccc4OC(F)(F)F)nn23)n1 [Compound 399] |  |  |  |  | TAMRA EC1.5 [5]: B (EC1.5 1-25 μM); Emax [6]: ≥ 350%
13 | Cc1cc2ncc(NC(=O)c3cscn3)n2nc1-c1ccccc1C(F)(F)F [Compound 434] |  |  |  |  | TAMRA EC1.5 [5]: A (EC1.5<1 μM); Emax [6]: ≥ 350%
14 | Cc1cc(-c2ccccc2C(F)(F)F)nn2c(C(=O)Nc3cccc(N4CC5(COC5)C4)n3)cnc12 [Compound 546] |  |  |  |  | TAMRA EC1.5 [5]: A (EC1.5<1 μM); Emax [6]: ≥ 350%
15 | O=C(Nc1cnc2ccc(-c3ccccc3OC(F)(F)F)nn12)c1ccccn1 [Compound 312] |  |  | A (EC1.5<1 μM) | ≥ 350 | 
16 | N#Cc1ccccc1-c1ccc2ncc(C(=O)Nc3ccnc(N4CCC4)c3)n2n1 [Compound 201] |  |  | B (EC1.5 1-25 μM) | ≥ 350 | 
17 | Cc1nn2ccc(-c3ccccc3C(F)(F)F)nc2c1NC(=O)c1ccncc1 [Compound 569] |  |  |  |  | TAMRA EC1.5 [5]: C (EC1.5>25 μM); Emax [6]: < 350%
18 | O=C(Nc1cccc(N2CCOCC2)n1)c1cnc2ccc(N3CC[C@@H](F)C3)nn12 [Compound 488] |  |  |  |  | TAMRA EC1.5 [5]: B (EC1.5 1-25 μM); Emax [6]: ≥ 350%
19 | O=C(Nc1cnc2ccc(-c3ccccc3C(F)(F)F)nn12)c1cccc(N2CCC2)n1 [Compound 144] | A (EC1.5<1 μM) | ≥ 350 |  |  | 
20 | O=C(Nc1cnn2ccc(-c3ccccc3C(F)(F)F)nc12)c1cccc(N2CCOCC2)n1 [Compound 256] |  |  | A (EC1.5<1 μM) | ≥ 350 | 
21 | O=C(Nc1cccc(CN2CCOCC2)n1)c1cnc2ccc(-c3c(F)cccc3Cl)nn12 [Compound 160] | B (EC1.5 1-25 μM) | ≥ 350 |  |  | 
22 | O=C(Nc1cnc2ccc(-c3ccccc3OC(F)(F)F)nn12)c1nccs1 [Compound 319] |  |  | A (EC1.5<1 μM) | ≥ 350 | 
23 | O=C(Nc1cnc2ccc(-c3ccccc3C(F)(F)F)nn12)c1cccc(CN2CCCC2)n1 [Compound 145] | A (EC1.5<1 μM) | ≥ 350 |  |  | 
24 | O=C(Nc1cnccn1)c1cnc2ccc(-c3c(F)cccc3F)nn12 [Compound 171] | C (EC1.5>25 μM) | < 350 |  |  | 
25 | COc1cccc(NC(=O)c2cnc3ccc(-c4ccccc4C(F)(F)F)nn23)n1 [Compound 103] | A (EC1.5<1 μM) | ≥ 350 |  |  | 
26 | O=C(Nc1cnn2ccc(-c3ccccc3C(F)(F)F)nc12)c1ncccc1F [Compound 747] |  |  | A (EC1.5<1 μM) | ≥ 350 | 

Second part, led by results:

Row | TAMRA EC1.5 (μM) [1] | Emax [2] [%] | TAMRA EC1.5 (μM) [3] | Emax [4] [%] | Compound | further results
27 |  |  | A (EC1.5<1 μM) | ≥ 350 | O=C(Nc1cccc(CN2CCC(F)(F)CC2)n1)c1cnc2ccc(-c3ccccc3C(F)(F)F)nn12 [Compound 391] | 
28 |  |  | A (EC1.5<1 μM) | ≥ 350 | COc1cc(NC(=O)c2c(C)nc3ccc(-c4ccccc4C(F)(F)F)nn23)ncn1 [Compound 602] | 
29 |  |  | A (EC1.5<1 μM) | ≥ 350 | CCOc1n[nH]c(NC(=O)c2c(C)nc3ccc(-c4ccccc4C(F)(F)F)nn23)n1 [Compound 676] | 
30 | B (EC1.5 1-25 μM) | ≥ 350 |  |  | Cn1ccnc1C(=O)Nc1cnc2ccc(-c3ccccc3C(F)(F)F)nn12 [Compound 91] | 
31 |  |  | A (EC1.5<1 μM) | ≥ 350 | Cc1cc(OCC2(C)COC2)nc(NC(=O)c2cnc3ccc(-c4ccccc4C(F)(F)F)nn23)n1 [Compound 277] | 
32 |  |  | A (EC1.5<1 μM) | ≥ 350 | Cc1cc(C)nc(NC(=O)c2cnc3ccc(-c4ccccc4C(F)(F)F)nn23)n1 [Compound 247] | 
33 | A (EC1.5<1 μM) | ≥ 350 |  |  | Cc1cc(NC(=O)c2cnc3ccc(-c4ccccc4C(F)(F)F)nn23)cc(C)n1 [Compound 99] | 
34 | B (EC1.5 1-25 μM) | < 350 |  |  | O=C(Nc1ccncn1)c1cnc2ccc(-c3cccc(C(F)(F)F)c3)nn12 [Compound 18] | 
35 |  |  | A (EC1.5<1 μM) | ≥ 350 | O=C(Nc1cnn2ccc(-c3ccccc3C(F)(F)F)nc12)c1nc2c(s1)CCCC2 [Compound 810] | 
36 |  |  | A (EC1.5<1 μM) | ≥ 350 | Cc1cncc(NC(=O)c2c(C)nn3ccc(-c4ccccc4C(F)(F)F)nc23)c1 [Compound 638] | 
37 |  |  | B (EC1.5 1-25 μM) | < 350 | CC(CO)(CO)Oc1nccc(NC(=O)c2cnc3ccc(-c4ccccc4C(F)(F)F)nn23)n1 [Compound 278] | 
38 |  |  | A (EC1.5<1 μM) | ≥ 350 | Cc1cc(NC(=O)c2c(C)nn3ccc(-c4ccccc4C(F)(F)F)nc23)ccn1 [Compound 629] | 
39 |  |  | A (EC1.5<1 μM) | ≥ 350 | Cc1nc2ccc(-c3ccccc3Br)nn2c1C(=O)Nc1cccnn1 [Compound 763] | 
